Data taken from patent US20250345391A1, “COMPOSITIONS AND METHODS FOR THE TREATMENT OF SEPSIS” (Children's Hospital Medical Center, priority 2022, published 2025).

Assays:
Assay type in all cases: in vivo, Male C57BL/6 mice
[1] = test system: endothelial glycocalyx and mitochondria of thoracic aortas; assay: Transmission electron microscopy of thoracic aortas with lanthanum staining after CLP; details: 6 h after CLP; colivelin 100 μg/kg i.p. at 1 h after CLP; vs vehicle
Text: (§1) The investigation conformed to the National Institutes of Health Guide for the Care and Use of Laboratory Animals (Eighth Edition, 2011) and was approved by the Institutional Animal Care and Use Committee of the Cincinnati Children's Hospital Medical Center. Male C57BL/6 mice were obtained from Charles River Laboratories International, Inc. (Wilmington, MA). Mice were used at 3-5 months of age to mimic the equivalent for human ranges from 20-25 years (29). Male mice only were chosen for the experimentation to avoid interference from female hormonal fluctuations in sepsis responses during the estrous cycle. Mice were housed in pathogen-free conditions under a 10-h light/14-h dark cycle with free access to food and water. Mice were anesthetized with 2.0% isoflurane in 50% oxygen and polymicrobial sepsis was induced by cecal ligation and puncture (CLP) (30). After a midline laparotomy, the cecum was exteriorized, ligated and punctured twice with a 23-G needle. The cecum was then returned into the peritoneal cavity and the abdominal incision was closed. […]
Glycocalyx structure was assessed by transmission electron microscopy (35). […]

[2] = test system: TNFα, IL-1β, IL-6, IL-10, KC, MIP-1α; assay: Plasma levels of cytokines after CLP sepsis (multiplex array); details: 6 h after CLP, vs vehicle
Text: The investigation conformed to the National Institutes of Health Guide for the Care and Use of Laboratory Animals (Eighth Edition, 2011) and was approved by the Institutional Animal Care and Use Committee of the Cincinnati Children's Hospital Medical Center. Male C57BL/6 mice were obtained from Charles River Laboratories International, Inc. (Wilmington, MA). Mice were used at 3-5 months of age to mimic the equivalent for human ranges from 20-25 years (29). Male mice only were chosen for the experimentation to avoid interference from female hormonal fluctuations in sepsis responses during the estrous cycle. Mice were housed in pathogen-free conditions under a 10-h light/14-h dark cycle with free access to food and water. Mice were anesthetized with 2.0% isoflurane in 50% oxygen and polymicrobial sepsis was induced by cecal ligation and puncture (CLP) (30). After a midline laparotomy, the cecum was exteriorized, ligated and punctured twice with a 23-G needle. The cecum was then returned into the peritoneal cavity and the abdominal incision was closed. After the procedure, mice were randomly assigned to three treatment groups: a vehicle-treated group received distilled water (200 μl/mouse) intraperitoneally (i.p.); a 100 μg colivelin-treated group received the colivelin at 100 μg/kg i.p., and a 200 μg colivelin-treated group received the colivelin at 200 μg/kg i.p. at 1 h after CLP. The intraperitoneal injection was chosen to allow for a rapid uptake and bioavailability of the peptide. All groups of mice also received fluid resuscitation (35 ml/kg normal saline solution subcutaneously) immediately after, at 3 h and 12 h after the CLP procedure. To minimize pain at the surgical incision site, lidocaine hydrochloride (1%, 4 mg/kg total dose) was applied locally immediately after the procedure. […] Mice were then sacrificed at 0, 6 and 18 h after CLP. Blood, lungs, kidneys, liver, and thoracic aortas were collected for biochemical assays. Plasma levels of tumor necrosis factor-α (TNFα), interleukin (IL)-1β, IL-6, IL-10, keratinocytes-derived chemokine (KC), and macrophage inflammatory proteins (MIP-1α) were used as indices of the systemic inflammatory response and were evaluated by a commercially available multiplex array system (Milliplex, Millipore Corporation, Billerica, MA). Plasma levels of endoglin, intercellular adhesion molecule-1 (ICAM-1), P-selectin, proprotein convertase subtilisin/kexin type 9 (PCSK9), and angiopoietin-2 (Ang 2) were used as indices of endothelial injury and were evaluated by a commercially available multiplex array system (R&D Systems, Minneapolis, MN). Plasma levels of syndecan-1 were used as indices of glycocalyx damage and were evaluated by a mouse syndecan-1 sandwich-type enzyme-linked immunosorbent assay (ELISA) kit (Boster Biological Technology Co., California, US). Assays were performed using the protocols recommended by the manufacturer.

lung sections = assay: Lung histopathology after CLP sepsis; details: 6 h after CLP; colivelin 100 or 200 μg/kg i.p. at 1 h after CLP; vs vehicle
Text: as §1, with “(30).” for “(30). After a midline laparotomy, the cecum was exteriorized, ligated and punctured twice with a 23-G needle. The cecum was then returned into the peritoneal cavity and the abdominal incision was closed.”
Paraffin-embedded sections of thoracic aortas and lungs were stained with hematoxylin and eosin for morphological evaluation by three independent observers blinded to the treatment groups. Lung injury was also analyzed by a semiquantitative score based on the following histologic features: alveolar capillary congestion, infiltration of red blood cells and inflammatory cells into the airspace, alveolar wall thickness, and hyaline membrane formation (34). […]

[3] = colivelin 100 or 200 μg/kg i.p. at 1 h after CLP, dose-independent
[4] = colivelin 100 or 200 μg/kg i.p., trend towards reduction

Q: With Colivelin (SALLRSIPAPAGASRLLLLTGEIDLP) as the substance, how does the “Dense structure of endothelial glycocalyx in thoracic aorta (electron microscopy)” value [1] read?
A: Its value is “appeared well preserved”.

Q: What about the “Mitochondria in thoracic aorta cells (electron microscopy)” value [1] of the same substance?
A: Its value is “appeared normal with dense matrix in all cell types”.

Q: And the “Plasma levels of IL-10” value [2, 3]?
A: Its value is “significantly decreased”.

Q: What about the “Plasma levels of MIP-1α” value [2, 3] of the same substance?
A: Its value is “significantly decreased”.

Q: What about the “Plasma levels of TNF-α” value [2, 3] of the same substance?
A: Its value is “significantly decreased”.

Q: And the “Plasma levels of IL-1β” value [2, 4]?
A: The value was “not statistically different”.

Q: And the “Plasma levels of IL-6” value [2, 4]?
A: The value was “not statistically different”.

Q: What about the “Plasma levels of KC” value ([2]; colivelin at 200 μg/kg i.p. at 1 h after CLP) of the same substance?
A: The value was “significantly reduced”.

Q: And the “Microscopic examination of hematoxylin and eosin-stained lung sections” value (lung sections)?
A: Its value is “reduced infiltration of inflammatory cells and ameliorated alveolar damage”.
